Tested on: NIH3T3 fibroblast cells
Test: Dox internalization in cells incubated in Dox solution (FIG. 7)
Type: cell-based, mice
Details: cells incubated 24 and 36 h in 17 μM Dox solution
Protocol: FIGS. 7A-D provide (A,B) Overlaid optical microscopy and fluorescence images (λex=481 nm) showing extent of Dox internalization in NIH3T3 fibroblast cells after 24 and 36 h incubation in 17 μM Dox solution (for comparison, the Dox concentration that was released from 1-cm^2 nano-patterned PEM to 1-mL solution was ˜14 μM as shown in FIG. 4F). Cells were cultured for 2 days prior to incubation.

COc1cccc2c1C(=O)c1c(O)c3c(c(O)c1C2=O)C[C@@](O)(C(=O)CO)C[C@@H]3O[C@H]1C[C@H](N)[C@H](O)[C@H](C)O1 [Dox, doxorubicin]
time for the drug to penetrate the cell membrane, versus release from PEM: much longer time was needed

— patent US20210154472A1, “ELECTRICALLY RESPONSIVE, NANOPATTERNED SURFACE FOR TRIGGERED INTRACELLULAR DELIVERY OF BIOLOGICALLY ACTIVE MOLECULES” (Yissum Research Development Company of the Hebrew …, priority 2019, published 2021)
